A short description of data set [1]: Pharmacokinetic screening, iv. Type of data set: in vivo. To be noted: CD-1 mice, 3 mg/kg iv.
The target of a further data set is Human PPARδ LBD (Homo sapiens (Human), UniProt Q03181). In words: PPAR delta transactivation (PPARδ Activity Screen, GAL4-PPARδ LBD luciferase reporter in CV-1 cells). Type of data set: cell-based. The method, then: Cell Culture and Transfection:
CV-1 cells were grown in DMEM+10% charcoal stripped FCS. Cells were seeded into 384-well plates the day before transfection to give a confluency of 50-80% at transfection. A total of […] containing 0.64 micrograms pCMX-PPARDelta LBD, 0.1 micrograms pCMXβGal, 0.08 micrograms pGLMH2004 reporter and 0.02 micrograms pCMX empty vector was transfected per well using FuGene transfection reagent according to the manufacturer's instructions (Roche). Cells were allowed to express protein for 48 h followed by addition of compound.
Human PPARδ was used to PCR amplify the PPARδ LBD. […] Ensuing fusions were verified by sequencing.
Compounds: All compounds were dissolved in DMSO and diluted 1:1000 upon addition to the cells. Compounds were tested in quadruple in concentrations ranging from 0.001 to 100 μM. Cells were treated with compound for 24 h followed by luciferase assay. Each compound was tested in at least two separate experiments.
Statistical Methods: The activity of a compound is calculated as fold induction compared to an untreated sample. For each compound the efficacy (maximal activity) is given as a relative activity compared to GW501516, a PPARδ agonist. […] EC50 values were calculated via non-linear regression using GraphPad PRISM (GraphPad Software, San Diego, Calif.).
(In a reporter assay the amount or activity of a reporter protein is the signal.)

The subject of data set [2] is C57BL6J mice, thermal injury to the TA. Description: Muscle regeneration after freeze burn (thermal) injury to the TA, oral GW501516. The class given is in vivo.
For a further data set, the system named is FGF1a promoter. Description: Luciferase reporter assay of FGF1a promoter co-transfected with PPARδ. The class given is cell-based. To be noted: PPARδ with or without ligand.

One may read the EC50 as the concentration that produces a half-maximal response. By inhibition is commonly meant the percentage by which the read-out fell short of the control. A lower inhibition goes with little suppression.

Sequence of Human PPARδ LBD (Q03181 128-441 limits assumed): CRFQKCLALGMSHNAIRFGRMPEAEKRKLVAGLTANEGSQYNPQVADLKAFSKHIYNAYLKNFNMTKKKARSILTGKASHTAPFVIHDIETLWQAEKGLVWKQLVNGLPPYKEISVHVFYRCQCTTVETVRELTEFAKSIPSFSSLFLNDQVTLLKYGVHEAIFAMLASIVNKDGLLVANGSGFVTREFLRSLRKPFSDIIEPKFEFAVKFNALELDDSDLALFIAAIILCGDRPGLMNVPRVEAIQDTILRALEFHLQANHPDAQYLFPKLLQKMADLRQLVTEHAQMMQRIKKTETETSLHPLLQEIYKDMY

Consider `CN(Cc1ccccc1OCCCC1CC1C(=O)O)C(=O)c1ccc(-c2ccco2)cc1` (centres unmarked) [Compound 8t, 2-(3-(2-((4-(furan-2-yl)-N-methylbenzamido)methyl)phenoxy)propyl) cyclopropane-1-carboxylic acid], for which the Mice_PK_IV_Cl in data set [1] was determined as 3.08 mL/min/kg.

Turning to `CN(Cc1ccccc1OCc1cccc(CCC(=O)O)c1)C(=O)c1ccc(-c2ccco2)cc1` [Compound 8p, 3-(3-((2-((4-(furan-2-yl)-N-methylbenzamido)methyl)phenoxy)methyl)phenyl)propanoic acid], in data set [1], the “Mice_PK_IV_AUC (0-inf)” value stood at 288.90 ng·h/mL and the Mice_PK_IV_Cl is 173.05 mL/min/kg. The like results for `C/C(=C\CCCOc1ccccc1CN(C)C(=O)c1ccc(-c2ccco2)cc1)C(=O)O` [Compound 8k, (E)-6-(2-((4-(furan-2-yl)-N-methylbenzamido)methyl)phenoxy)-2-methylhex-2-enoic acid] were, in that order, 12804.00 ng·h/mL and 3.92 mL/min/kg. In data set [1], `CN(Cc1ccccc1OCCC[C@@H]1C[C@@H]1C(=O)O)C(=O)c1ccc(-c2ccco2)cc1` (single isomer, unassigned) [Compound 8x] gave a Mice_PK_IV_Cl of 1.90 mL/min/kg. As for `CN(Cc1ccccc1OCc1cccc(CC(=O)O)c1)C(=O)c1ccc(-c2ccco2)cc1` [Compound 8q, 2-(3-((2-((4-(furan-2-yl)-N-methylbenzamido)methyl)phenoxy)methyl)phenyl)acetic acid], in data set [1], the “Mice_PK_IV_AUC (0-inf)” value turned out to be 622.50 ng·h/mL and the Mice_PK_IV_Cl stood at 80.32 mL/min/kg.

Turning to `C/C(=C\COc1ccc(F)cc1CN(C)C(=O)c1ccc(-c2ccco2)cc1)CCC(=O)O` [Compound 8g, (E)-6-(4-fluoro-2-((4-(furan-2-yl)-N-methylbenzamido)methyl)phenoxy)-4-methylhex-4-enoic acid], in data set [1], the “Mice_PK_IV_AUC (0-inf)” value was 2195.00 ng·h/mL and the Mice_PK_IV_Cl stood at 23.00 mL/min/kg. `C/C(=C\COc1ccccc1CN(C)C(=O)c1ccc(-c2ccco2)c(F)c1)CCC(=O)O` [Compound 8c, (E)-6-(2-((3-fluoro-4-(furan-2-yl)-N-methylbenzamido)methyl)phenoxy)-4-methylhex-4-enoic acid]: in data set [1], the “Mice_PK_IV_AUC (0-inf)” value came to 1459.00 ng·h/mL and the Mice_PK_IV_Cl worked out at 34.30 mL/min/kg. The like results for `CN(Cc1ccccc1OCCCCC(C)(C)C(=O)O)C(=O)c1ccc(-c2ccco2)cc1` [Compound 8s, 6-(2-((4-(furan-2-yl)-N-methylbenzamido)methyl)phenoxy)-2,2-dimethylhexanoic acid] were, in that order, 48454.90 ng·h/mL and 1.03 mL/min/kg.

Take `CN(Cc1ccccc1OCCC/C=C/C(=O)O)C(=O)c1ccc(-c2ccco2)cc1` [Compound 8cc, (E)-6-(2-((4-(furan-2-yl)-N-methylbenzamido)methyl)phenoxy)hex-2-enoic acid]: in data set [1], the “Mice_PK_IV_AUC (0-inf)” value turned out to be 748.00 ng·h/mL and the Mice_PK_IV_Cl was found to be 66.87 mL/min/kg. For `C/C(=C\COc1ccccc1CN(C)C(=O)c1ccc(-c2ccc(C)o2)cc1)CCC(=O)O` [Compound 8e, (E)-4-methyl-6-(2-((N-methyl-4-(5-methylfuran-2-yl)benzamido)methyl)phenoxy)hex-4-enoic acid], in data set [1], the “Mice_PK_IV_AUC (0-inf)” value came out at 2166.00 ng·h/mL and the Mice_PK_IV_Cl came out at 23.10 mL/min/kg. As for `CN(Cc1ccccc1OCCC[C@H]1CC1C(=O)O)C(=O)c1ccc(-c2ccco2)cc1` (single isomer, unassigned) [Compound 8u, (1R*,2S*)-2-(3-(2-((4-(furan-2-yl)-N-methylbenzamido)methyl)phenoxy)propyl) cyclopropane-1-carboxylic acid], in data set [1], the “Mice_PK_IV_AUC (0-inf)” value stood at 30142.00 ng·h/mL and the Mice_PK_IV_Cl is 1.70 mL/min/kg. The compound `C/C(=C\COc1ccccc1CN(C)C(=O)c1ccc2oc(C)cc2c1)CCC(=O)O` [Compound 8f, (E)-6-(2-((N,2-dimethylbenzofuran-5-carboxamido)methyl)phenoxy)-4-methylhex-4-enoic acid] showed a Mice_PK_IV_Cl in data set [1] of 40.02 mL/min/kg. On Human PPARδ LBD (CV-1 cells, 24 h), `C/C(=C\COc1ccc(C(F)(F)F)cc1CN(C)C(=O)c1ccc(-c2ccco2)cc1)CCC(=O)O` [Compound 8aa, (E)-6-(2-((4-(furan-2-yl)-N-methylbenzamido)methyl)-4-(trifluoromethyl)phenoxy)-4-methylhex-4-enoic acid] came in with an EC50 of 683 nM. As for `CN(Cc1ccccc1/C=C/CCCCC(=O)O)C(=O)c1ccc(-c2ccco2)cc1` [Compound 8l, (E)-7-(2-((4-(furan-2-yl)-N-methylbenzamido)methyl)phenyl)hept-6-enoic acid], in data set [1], the “Mice_PK_IV_AUC (0-inf)” value was 5161.00 ng·h/mL and the Mice_PK_IV_Cl stood at 9.68 mL/min/kg. Taken in the same sequence, the figures for `C/C(=C\C(=O)O)CCCOc1ccccc1CN(C)C(=O)c1ccc(-c2ccco2)cc1` [Compound 8i, (E)-6-(2-((4-(furan-2-yl)-N-methylbenzamido)methyl)phenoxy)-3-methylhex-2-enoic acid] were 4691.00 ng·h/mL and 10.65 mL/min/kg. The like results for `C/C(=C\COc1ccccc1CN(C)C(=O)c1ccc(-c2ccco2)c(Cl)c1)CCC(=O)O` [Compound 8d, (E)-6-(2-((3-chloro-4-(furan-2-yl)-N-methylbenzamido)methyl)phenoxy)-4-methylhex-4-enoic acid] were, in that order, 1443.00 ng·h/mL and 34.65 mL/min/kg. `C/C(=C\COc1ccc(C)cc1CN(C)C(=O)c1ccc(-c2ccco2)cc1)CCC(=O)O` [Compound 8n, (E)-6-(2-((4-(furan-2-yl)-N-methylbenzamido)methyl)-4-methylphenoxy)-4-methylhex-4-enoic acid]: in data set [1], the Mice_PK_IV_Cl came out at 5.10 mL/min/kg.

Turning to `CC(CCOc1ccccc1CN(C)C(=O)c1ccc(-c2ccco2)cc1)CCC(=O)O` (centres unmarked) [Compound 8h, 6-(2-((4-(furan-2-yl)-N-methylbenzamido)methyl)phenoxy)-4-methylhexanoic acid], in data set [1], the “Mice_PK_IV_AUC (0-inf)” value was 11843.00 ng·h/mL and the Mice_PK_IV_Cl stood at 4.20 mL/min/kg. The like results for `Cc1cc2cc(C(=O)N(C)Cc3ccccc3OCCCCCC(=O)O)ccc2o1` [Comparator Cmpd. 3, reference compound] were, in that order, “[AUC (0-inf) = 1788.0 ng * hr/ml]” and “Mice_PK_IV_Cl = 27.95 ml/min/kg”.

On to `CC(CCCCOc1ccccc1CN(C)C(=O)c1ccc(-c2ccco2)cc1)C(=O)O` (centres unmarked) [Compound 8o, 6-(2-((4-(furan-2-yl)-N-methylbenzamido)methyl)phenoxy)-2-methylhexanoic acid], for which, in data set [1], the “Mice_PK_IV_AUC (0-inf)” value was 11397.00 ng·h/mL and the Mice_PK_IV_Cl is 2.78 mL/min/kg.

For `Cc1cc(SCc2sc(-c3ccc(C(F)(F)F)cc3)nc2C)ccc1OCC(=O)O` [GW501516], in data set [2] (5 mg/kg orally, 4 days prior to and 5 days after injury, 5 days after the injury), the “Evans Blue dye uptake, proportion of muscle CSA stained” value came out at 4.9%. For the same compound, the “expression of inflammatory marker genes by QPCR” value in data set [2] (3 days after the injury) is reported as “significantly reduced”. In addition, the “reduction in the proportion of stained area” value in data set [2] (5 days after the injury, versus vehicle) came out at 34.7%. Besides, the “PPARδ target genes (PDK4, CPT1b, and catalase) in TA by QPCR” value in data set [2] (9 day treatment) is recorded as “Up-regulation”. In addition, in data set [2] (BrdU injection at 48 hours after the injury), the “myoblast proliferation (BrdU positive nuclei)” value is on record as “promoted myoblast proliferation”. For the same compound, the “number of quiescent satellite cells” value in data set [2] (after 9 days or 4 weeks of ligand treatment) is on record as “an increase in the number of quiescent satellite cells was not observed”. In addition, the “induction of FGF1a (luciferase reporter)” value with FGF1a promoter is recorded as “induction of FGF1a”. For `CN(Cc1ccccc1OCCC[C@H]1C[C@H]1C(=O)O)C(=O)c1ccc(-c2ccco2)cc1` (single isomer, unassigned) [Compound 8w], the Mice_PK_IV_Cl in data set [1] was determined as 1.70 mL/min/kg. At Human PPARδ LBD (CV-1, @ 10 uM), `C/C(=C\COc1ccc(C2CC2)cc1CN(C)C(=O)c1ccc(-c2ccco2)cc1)CCC(=O)O` [Compound 8bb, (E)-6-(4-cyclopropyl-2-((4-(furan-2-yl)-N-methylbenzamido)methyl)phenoxy)-4-methylhex-4-enoic acid] yielded an inhibition at 10 µM of 58%.
